{
  "source": "PubChem BioAssay AID504443",
  "about": "(Sanford-Burnham Center for Chemical Genomics, 2011)",
  "note": "Activity calls are given as the source filed them. How the calls were made is not given here.",
  "data": [
    {"system": "AML12 mouse hepatocytes, cytotoxicity", "assay": "AML12 mouse hepatocyte viability loss – cell-based, cytotoxicity control, SAR follow-up (AID 504443)", "values": [
      {"smiles": "Cn1c(C(=O)NCCc2ccc3c(c2)OCO3)cc2ccccc21", "IC50": "> 10 µM (inactive)"},
      {"smiles": "CCOc1ccc(CCNC(=O)CCC(=O)N2CCOc3ccc(C)cc32)cc1OCC", "IC50": "> 10 µM (inactive)"},
      {"smiles": "CCOc1ccc(CCNC(=O)c2cc(-c3ccccc3)c(N3CCOCC3)s2)cc1OC", "IC50": "> 10 µM (inactive)"},
      {"smiles": "CCOc1ccc(CCNC(=O)c2cc3sccc3[nH]2)cc1OCC", "IC50": "> 10 µM (inactive)"},
      {"smiles": "Cn1c(=O)cc(SCC(=O)NCc2ccc3c(c2)OCO3)c2ccccc21", "IC50": "> 10 µM (inactive)"},
      {"smiles": "CCOc1ccc(CCNC(=O)Cn2nc(C)c3c(C)n(-c4ccccc4)nc3c2=O)cc1OCC", "IC50": "> 10 µM (inactive)"},
      {"smiles": "CCOc1ccc(CCNC(=O)COc2cc(=O)n(C)c3ccccc23)cc1OCC", "IC50": "> 10 µM (inactive)"},
      {"smiles": "CCOc1ccc(CCNC(=O)Cn2cccc2C(=O)c2ccccc2C)cc1OCC", "IC50": "> 10 µM (inactive)"},
      {"smiles": "COc1ccc(CNC(=O)c2cc(-c3ccccc3)c(N3CCOCC3)s2)cc1OC", "IC50": "> 10 µM (inactive)"},
      {"smiles": "CCOc1ccc(CCNC(=O)CSc2cc(=O)n(C)c3cc(Cl)ccc23)cc1OCC", "IC50": "> 10 µM (inactive)"},
      {"smiles": "COc1ccc(CCNC(=O)c2cc(-c3ccccc3)c(N3CCOCC3)s2)cc1OC", "IC50": "> 10 µM (inactive)"},
      {"smiles": "CCn1c(C(=O)NCc2cc(OC)c(OC)c(OC)c2)cc2sccc21", "IC50": "> 10 µM (inactive)"},
      {"smiles": "CCOc1ccc(CCNC(=O)CSc2cc(=O)n(C)c3ccccc23)cc1OC", "IC50": "> 10 µM (inactive)"},
      {"smiles": "COc1cc(CNC(=O)c2cc3ccsc3n2C)cc(OC)c1OC", "IC50": "> 10 µM (inactive)"},
      {"smiles": "CCOc1ccc(CCNC(=O)CCOc2cc(C)ccc2C)cc1OCC", "IC50": "> 10 µM (inactive)"},
      {"smiles": "CCOc1cc(CCNC(=O)c2cc3sccc3[nH]2)ccc1OC", "IC50": "> 10 µM (inactive)"},
      {"smiles": "CCOc1ccc(CCNC(=O)c2cc3sccc3n2C)cc1OCC", "IC50": "> 10 µM (inactive)"},
      {"smiles": "Cn1c(=O)cc(SCC(=O)Nc2ccc3c(c2)OCO3)c2ccccc21", "IC50": "> 10 µM (inactive)"},
      {"smiles": "CCOc1ccc(CCNC(=O)CCc2nnc3ccc(N4CCCCC4)nn23)cc1OCC", "IC50": "> 10 µM (inactive)"},
      {"smiles": "COc1ccc(CCNC(=O)CSc2cc(=O)n(C)c3ccccc23)cc1OC", "IC50": "> 10 µM (inactive)"},
      {"smiles": "CCOc1ccc(CCNC(=O)c2cc(-c3ccccc3)c(N3CCOCC3)s2)cc1OCC", "IC50": "> 10 µM (inactive)"},
      {"smiles": "O=C(NCCc1ccc2c(c1)OCO2)c1ccc(N2CCOCC2)s1", "IC50": "> 10 µM (inactive)"},
      {"smiles": "CCOc1ccc(CCNC(=O)CSc2cc(=O)n(C)c3ccccc23)cc1OCC", "IC50": "> 10 µM (inactive)"},
      {"smiles": "CCOc1ccc(CCNC(=O)c2cc3ccsc3n2C)cc1OCC", "IC50": "> 10 µM (inactive)"},
      {"smiles": "CCOc1ccc(CCNC(=O)CN2CCN(Cc3ccccc3C)C2=O)cc1OCC", "IC50": "> 10 µM (inactive)"},
      {"smiles": "CCn1c(C(=O)Nc2ccc3c(c2)OCO3)cc2sccc21", "IC50": "> 10 µM (inactive)"},
      {"smiles": "CCn1c(C(=O)Nc2ccc(OC)c(OC)c2)cc2ccsc21", "IC50": "> 10 µM (inactive)"},
      {"smiles": "CCOc1cc(CCNC(=O)c2cc(-c3ccccc3)c(N3CCOCC3)s2)ccc1OC", "IC50": "> 10 µM (inactive)"},
      {"smiles": "CCOc1ccc(CCNC(=O)COC(=O)c2ccc(OC)c(OC)c2OC)cc1OCC", "IC50": "> 10 µM (inactive)"},
      {"smiles": "CCn1c(C(=O)Nc2ccc3c(c2)OCO3)cc2ccsc21", "IC50": "> 10 µM (inactive)"},
      {"smiles": "COc1ccc(CNC(=O)c2cc3ccsc3n2C)cc1OC", "IC50": "> 10 µM (inactive)"},
      {"smiles": "Cn1c(C(=O)Nc2ccc3c(c2)OCO3)cc2ccsc21", "IC50": "> 10 µM (inactive)"},
      {"smiles": "CCOc1ccc(CCNC(=O)C2CC=CCC2C(=O)OC(C)C)cc1OCC", "note": "(stereo not drawn)", "IC50": "> 10 µM (inactive)"},
      {"smiles": "CCOc1ccc(CCNC(=O)COC(=O)c2cc(OC)c(OC)c(OC)c2)cc1OCC", "IC50": "> 10 µM (inactive)"},
      {"smiles": "CCOc1ccc(CCNC(=O)CCC(=O)N2CCSc3ccccc32)cc1OCC", "IC50": "> 10 µM (inactive)"},
      {"smiles": "CCn1c(C(=O)NCCc2ccc(OC)c(OC)c2)cc2ccsc21", "IC50": "> 10 µM (inactive)"},
      {"smiles": "COc1cc(CNC(=O)CSc2cc(=O)n(C)c3ccccc23)cc(OC)c1OC", "IC50": "> 10 µM (inactive)"},
      {"smiles": "CCn1c(C(=O)NCc2ccc3c(c2)OCO3)cc2sccc21", "IC50": "> 10 µM (inactive)"},
      {"smiles": "CCOc1cc(CCNC(=O)c2cc3ccccc3n2C)ccc1OC", "IC50": "> 10 µM (inactive)"},
      {"smiles": "CCOc1ccc(CCNC(=O)c2cc3sc(Cl)cc3n2C)cc1OCC", "IC50": "> 10 µM (inactive)"},
      {"smiles": "Cn1c(=O)cc(SCC(=O)NCCc2ccc3c(c2)OCO3)c2ccccc21", "IC50": "> 10 µM (inactive)"},
      {"smiles": "CCn1c(C(=O)NCc2ccc(OC)c(OC)c2)cc2ccsc21", "IC50": "> 10 µM (inactive)"},
      {"smiles": "CCOc1cc(CCNC(=O)c2ccc(N3CCOCC3)s2)ccc1OC", "IC50": "> 10 µM (inactive)"},
      {"smiles": "CCOc1ccc(CCNC(=O)Cn2ncn3nc(-c4ccc(OC)cc4)cc3c2=O)cc1OCC", "IC50": "> 10 µM (inactive)"},
      {"smiles": "CCOc1ccc(CCNC(=O)CCc2nc(-c3ccc(OC)cc3)no2)cc1OCC", "IC50": "> 10 µM (inactive)"},
      {"smiles": "CCOc1ccc(CCNC(=O)CCc2nnc3ccc(N4CCCC4)nn23)cc1OCC", "IC50": "> 10 µM (inactive)"},
      {"smiles": "CCOc1ccc(CCNC(=O)c2ccc(N3CCOCC3)s2)cc1OCC", "IC50": "> 10 µM (inactive)"},
      {"smiles": "CCOc1cc(CCNC(=O)CSc2cc(=O)n(C)c3ccccc23)ccc1OC", "IC50": "> 10 µM (inactive)"},
      {"smiles": "COc1ccc(CCNC(=O)COC(=O)c2cc(OC)c(OC)cc2OC)cc1OC", "IC50": "> 10 µM (inactive)"},
      {"smiles": "CCOc1ccc(CCNC(=O)c2nnc(Cc3ccc(F)cc3)o2)cc1OCC", "IC50": "> 10 µM (inactive)"},
      {"smiles": "CCn1c(C(=O)NCc2cc(OC)c(OC)c(OC)c2)cc2ccsc21", "IC50": "> 10 µM (inactive)"},
      {"smiles": "O=C(NCCc1ccc2c(c1)OCO2)c1cc2sccc2[nH]1", "IC50": "> 10 µM (inactive)"},
      {"smiles": "CCOc1ccc(CCNC(=O)c2cc3ccsc3n2C)cc1OC", "IC50": "> 10 µM (inactive)"},
      {"smiles": "COc1ccc(NC(=O)c2cc3ccsc3n2C)cc1OC", "IC50": "> 10 µM (inactive)"},
      {"smiles": "CCOc1ccc(CCNC(=O)c2cc3ccccc3n2C)cc1OC", "IC50": "> 10 µM (inactive)"},
      {"smiles": "COc1ccc(CCNC(=O)Cn2cccc2C(=O)c2ccccc2C)cc1OC", "IC50": "> 10 µM (inactive)"},
      {"smiles": "O=C(NCCc1ccc2c(c1)OCO2)c1cc(-c2ccccc2)c(N2CCOCC2)s1", "IC50": "> 10 µM (inactive)"},
      {"smiles": "COc1ccc(CCNC(=O)c2cc3sccc3n2C)cc1OC", "IC50": "> 10 µM (inactive)"},
      {"smiles": "CCOc1ccc(CCNC(=O)CSc2cc(=O)n(CC)c3ccccc23)cc1OCC", "IC50": "> 10 µM (inactive)"},
      {"smiles": "COc1ccc(CCNC(=O)c2cc3sc(Cl)cc3n2C)cc1OC", "IC50": "> 10 µM (inactive)"},
      {"smiles": "CCOc1ccc(CCNC(=O)CN2C(=O)c3cccnc3Oc3ccc(C)cc32)cc1OCC", "IC50": "> 10 µM (inactive)"},
      {"smiles": "CCOc1ccc(CCNC(=O)Cn2cccc2C(=O)c2ccccc2)cc1OCC", "IC50": "> 10 µM (inactive)"},
      {"smiles": "CCn1c(C(=O)NCCc2ccc(OC)c(OC)c2)cc2sc(Cl)cc21", "IC50": "> 10 µM (inactive)"},
      {"smiles": "CCn1c(C(=O)Nc2ccc(OC)c(OC)c2)cc2sccc21", "IC50": "> 10 µM (inactive)"},
      {"smiles": "CCOc1ccc(CCNC(=O)c2cc3ccsc3n2CC)cc1OCC", "IC50": "> 10 µM (inactive)"},
      {"smiles": "CCOc1cc(CCNC(=O)c2cc3sccc3n2CC)ccc1OC", "IC50": "> 10 µM (inactive)"},
      {"smiles": "CCOc1cc(CCNC(=O)c2cc3ccsc3n2C)ccc1OC", "IC50": "> 10 µM (inactive)"},
      {"smiles": "Cn1c(C(=O)NCc2ccc3c(c2)OCO3)cc2ccsc21", "IC50": "> 10 µM (inactive)"},
      {"smiles": "CCOc1cc(CCNC(=O)COc2cc(=O)n(C)c3ccccc23)ccc1OC", "IC50": "> 10 µM (inactive)"},
      {"smiles": "CCOc1ccc(CCNC(=O)c2cc3sccc3n2CC)cc1OCC", "IC50": "> 10 µM (inactive)"},
      {"smiles": "COc1ccc(CNC(=O)CSc2cc(=O)n(C)c3ccccc23)cc1OC", "IC50": "> 10 µM (inactive)"},
      {"smiles": "COc1ccc(CCNC(=O)c2cc3ccccc3n2C)cc1OC", "IC50": "> 10 µM (inactive)"},
      {"smiles": "CCOc1ccc(CCNC(=O)COC(=O)c2cc(OC)cc(OC)c2)cc1OCC", "IC50": "> 10 µM (inactive)"},
      {"smiles": "CCOc1ccc(CCNC(=O)c2cc3sccc3n2CC)cc1OC", "IC50": "> 10 µM (inactive)"},
      {"smiles": "COc1ccc(CNC(=O)c2ccc(N3CCOCC3)s2)cc1OC", "IC50": "> 10 µM (inactive)"},
      {"smiles": "COc1ccc(CCNC(=O)c2cc(-c3ccccc3)c(N3CCOCC3)s2)c(OC)c1OC", "IC50": "> 10 µM (inactive)"},
      {"smiles": "CCOc1ccc(CCNC(=O)c2cc3ccsc3n2CC)cc1OC", "IC50": "> 10 µM (inactive)"},
      {"smiles": "CCOc1ccc(CCNC(=O)CCC(=O)N2CCOc3ccccc32)cc1OCC", "IC50": "> 10 µM (inactive)"}
    ]}
  ]
}
